According to patent publication US4585756A, “Bovine GRF” (The Salk Institute for Biological Studies, priority 1983, dated 1986):

System: rat pituitary cells
Experiment: in vitro release of growth hormone (ir GH by radioimmunoassay) from cultured rat pituitary cells, side-by-side with hGRF(1-44)-NH2
Format: cell-based
Method: To determine the effectiveness of the peptide to promote the release of growth hormone, in vitro assays are carried out using synthetic hGRF(1-44)-NH2 in side-by-side comparison with equimolar concentrations of the extracted and purified bGRF(1-44) of Example II. hGRF thus serves as a GRF Reference Standard having a known effectiveness to promote the release of growth hormone from rat pituitary cells. Cultures are used which include cells of rat pituitary glands removed some four to five days previously. Both cultures of a defined standard medium and cultures which are considered optimal for the secretion of growth hormone are used for the comparative testing, in the general manner described in Brazeau, et al. Regulatory Peptides, 1, 255, 1981. Incubation with the substance to be tested is carried out for 3 to 4 hours, and aliquots of the culture medium are removed and processed to measure their contents in immunoreactive GH(ir GH) by a well-characterized radioimmunoassay.

[1] = equimolar ratios, rat pituitary cell cultures, incubation 3 to 4 hours

Structure (SMILES): CC[C@H](C)[C@H](NC(=O)[C@H](C)NC(=O)[C@H](CC(=O)O)NC(=O)[C@H](C)NC(=O)[C@@H](N)Cc1ccc(O)cc1)C(=O)N[C@@H](Cc1ccccc1)C(=O)N[C@H](C(=O)N[C@@H](CC(N)=O)C(=O)N[C@@H](CO)C(=O)N[C@@H](Cc1ccc(O)cc1)C(=O)N[C@@H](CCCNC(=N)N)C(=O)N[C@@H](CCCCN)C(=O)N[C@H](C(=O)N[C@@H](CC(C)C)C(=O)NCC(=O)N[C@@H](CCC(N)=O)C(=O)N[C@@H](CC(C)C)C(=O)N[C@@H](CO)C(=O)N[C@@H](C)C(=O)N[C@@H](CCCNC(=N)N)C(=O)N[C@@H](CCCCN)C(=O)N[C@@H](CC(C)C)C(=O)N[C@@H](CC(C)C)C(=O)N[C@@H](CCC(N)=O)C(=O)N[C@@H](CC(=O)O)C(=O)N[C@H](C(=O)N[C@@H](CCSC)C(=O)N[C@@H](CC(N)=O)C(=O)N[C@@H](CCCNC(=N)N)C(=O)N[C@@H](CCC(N)=O)C(=O)N[C@@H](CCC(N)=O)C(=O)NCC(=O)N[C@@H](CCC(=O)O)C(=O)N[C@@H](CCCNC(=N)N)C(=O)N[C@@H](CC(N)=O)C(=O)N[C@@H](CCC(N)=O)C(=O)N[C@@H](CCC(=O)O)C(=O)N[C@@H](CCC(N)=O)C(=O)NCC(=O)N[C@@H](C)C(=O)N[C@@H](CCCCN)C(=O)N[C@H](C(=O)N[C@@H](CCCNC(=N)N)C(=O)N[C@@H](CC(C)C)C(N)=O)C(C)C)[C@@H](C)CC)C(C)C)[C@@H](C)O [bGRF(1-44)]
- intrinsic biological activity (GH release) compared with synthetic hGRF(1-44)-NH2 [1]: full intrinsic biological activity
- potency (GH release) compared with synthetic hGRF(1-44)-NH2 [1]: close to the same potency
- intrinsic activity relative to hGRF(1-44)-NH2 (multiple doses factorial design experiments): same intrinsic activity
- specific activity relative to hGRF(1-44)-NH2 (multiple doses factorial design experiments, % of hGRF(1-44)-NH2, confidence limits of 54-93%): about 70%
